{"source": "patent US7273723B2", "about": "“Antibiotic-based gene regulation system” (priority 2001, dated 2007)", "key": {"[1]": {"system": "ET1/PETR3", "experiment": "Dose-response of EM-dependent SEAP expression in stable CHO-ET11-SEAP", "format": "cell-based, Chinese hamster ovary cells", "settings": "48 h", "method": "The cell line CHO-ET1-SEAP1 was grown for 48 h at different EM concentrations (ng/ml). The relative SEAP production is shown over 5 orders of magnitude of EM concentration.\n(§1) Chinese hamster ovary cells (CHO-K1, ATCC: CCL 61), and HeLa cells (ATCC: CRL-7923) as well as stable cell lines derived thereof were cultured as described before (Fussenegger et al., 1998, Nat. Biotechnol. 16,468-472) in the presence of appropriate antibiotics: G418 400 μg/ml; zeocin 100 μg/ml. Optimized CaPO4 protocols were used for high efficiency transient transfection of all cell lines (Fussenegger et al., 1998. Nat. Biotechnol. 16: 468-472). Transiently transfected cells were routinely analyzed after 48 h for CFP or SEAP expression using fluorescence microscopy and p-nitrophenolphosphate-based light absorbance timecourse, respectively, as described before (Fussenegger et al., 1998, Nat. Biotechnol. 16, 468-472; Berger et al., 1988, Gene 66, 1-10 b). For construction of stable CHO-ET1 and CHO-Triplet42 cell lines, CHO-Ki and CHO-TWIN1108 (Disclosed in PCT application no. 00/65080) were cotransfected with pWW35 and pZeoSV2 (invitrogen). CHO-ET11-SEAP was constructed by cotransfection of pWW38 and pSV2neo (Clontech) into CHO-ET11. The mixed populations were cloned using FACS-mediated single-cell-sorting (FACStar^Plus; Beckton Dickinson). For assessment of dose-response characteristics of PETR3-regulated gene expression, CHO-ET11-SEAP were cultured at cell densities of 50,000/ml for 48 h at various EM concentrations.\nVarying the concentrations of EM used for induction could control the levels of PETR3-regulated gene expression. This was assessed using a stable CHO cell line (CHO-ET11-SEAP) which expresses PETR3-SEAP (pWW38) and stably contains also a constitutive ET1 expression vector (pWW35). […] Increasing EM concentration above 10 ng/ml leads to a gradual decrease in SEAP expression, with lowest SEAP expression levels at EM concentrations over 1000 ng/ml. […]"}, "[2]": {"system": "ET1/PETR3", "experiment": "CFP expression in CHO cells infected with ET1-encoding lentivirus (pMF391) and transfected with pWW44", "format": "cell-based", "settings": "2 μg/ml erythromycin"}, "[3]": {"system": "erythromycin-dependent transactivators ET (MphR(A) fusions) / PETR promoters", "experiment": "SEAP reporter assay, CHO-K1 transiently cotransfected with ET transactivator and PETR-SEAP plasmids", "format": "cell-based, Chinese hamster", "method": "as §1\n(§2) Other antibiotics were eluted from antibiotic test discs (Mast Diagnostica GmbH, Reinfeld, Germany, or bioMérieux, Geneva Switzerland) in cell culture medium at 37° C. for 12 h to reach a final concentration of 30 μg/ml. All macrolide antibiotics were used at a 2 μg/ml concentration unless indicated otherwise.\nIn order to analyze the potential of the MphR(A)/ETR system for the design of a novel mammalian gene regulation system, we adapted these regulatory elements for use in a eukaryotic context by construction of a set of two chimeric determinants: the EM-inhibited transactivators (ET, MphR(A) fused to different eukaryotic transactivation domains: ET1: MphR(A)-VP16; ET2: MphR(A)-p65; ET3: MphR(A)-E2F4) and the EM-responsive promoter (PETR3) (ETR fused to the minimal cytomegalovirus PhCMVmin; Gossen et al., (1992). Proc. Natl. Acad. Sci. USA 89, 5547-5551). […] CFP-expression could only be detected when pWW44 was cotransfected with an ET1-encoding pWW35, showing that the chimeric ET1 protein functions as a transactivator for PETR3 in mammalian cells.\nTo analyze the regulatory performance of promoters PETR1 and PETR4, an ET1-encoding vector (pWW35) was cotransfected with pWW36 and pWW39 into CHO-K1 cells. […] The results are shown in Table 6 together with the values of an ET1/PETR3 transfection (Table 5) for better comparison."}, "[4]": {"system": "PIT / pristinamycin-responsive promoter PPIR", "experiment": "SEAP assay in CHO-Triplet42 transfected with PPIR-SEAP (pMF172)", "format": "cell-based", "settings": "CHO-Triplet42 + pMF172 (PPIR); antibiotic 2 μg/ml; 48 h", "method": "as §1, §2\nThe regulation performance of the EM-based regulation system was compared directly with the widely used TET- and PIP responsive expression concepts. To this end, we have constructed a stable CHO-K1-derived cell line expressing ET1, PIT and tTA (CHO-Triplet42). […] CHO-Triplet42 was transfected with either isogenic (i) PETR3-(pWW38), (ii) a PPIR-(pristinamycin-responsive promoter, pMF172, Fussenegger et al., 2000. supra.), or (iii) a PhCMV*-1-(tetracycline-responsive promoter, pMF111, Fussenegger et al., 2000. supra) driven SEAP expression vector to assess the individual regulation performance of the three antibiotic-responsive gene regulation systems in CHO cells (Table 5).\nTo analyze the relative regulatory characteristics, we evaluated induction factors (IF; ratio of maximal expression level to antibiotic-repressed expression level).\nThese repressive effects are still in a range which is tolerable for use in potential medical applications."}}}
{"smiles": "CC[C@H]1OC(=O)[C@H](C)[C@@H](O[C@H]2C[C@@](C)(OC)[C@@H](O)[C@H](C)O2)[C@H](C)[C@@H](O[C@@H]2O[C@H](C)C[C@H](N(C)C)[C@H]2O)[C@](C)(O)C[C@@H](C)C(=O)[C@H](C)[C@@H](O)[C@]1(C)O", "note": "[Erythromycin]", "values": [{"measurement": "EM concentration at which ET1/PETR3 is fully induced", "setting": "[1]", "value": "< 10", "unit": "ng/mL"}, {"measurement": "EM concentration at which ET1/PETR3 is repressed (lowest SEAP expression)", "setting": "[1]", "value": "> 1000", "unit": "ng/mL"}, {"measurement": "EM concentration window in which gene expression can be adjusted to different levels", "setting": "[1]", "value": "10 to 1000", "unit": "ng/mL"}, {"measurement": "CFP expression (fluorescence)", "setting": "[2]", "value": "complete repression"}, {"measurement": "SEAP activity [U/L] + Erythromycin [10 μg/ml]", "setting": "[3]; CHO + pBP37 + pWW38 (ET5 + PETR3), 48 hr", "value": "12.1 ± 1.5", "unit": "U/L"}, {"measurement": "SEAP activity [U/L] + Erythromycin [10 μg/ml]", "setting": "[3]; CHO + pBP38 + pWW38 (ET6 + PETR3), 48 hr", "value": "5.8 ± 0.5", "unit": "U/L"}, {"measurement": "SEAP activity [U/L] + Erythromycin [10 μg/ml]", "setting": "[3]; CHO + pBP39 + pWW38 (ET7 + PETR3), 48 hr", "value": "2.3 ± 0.2", "unit": "U/L"}, {"measurement": "SEAP activity [U/L] + Erythromycin [10 μg/ml]", "setting": "[3]; CHO + pWW35 + pWW36 (ET1 + PETR1-SEAP), 48 hrs", "value": "5.3 ± 0.6", "unit": "U/L"}, {"measurement": "SEAP activity [U/L] + Erythromycin [10 μg/ml]", "setting": "[3]; CHO + pWW35 + pWW38 (ET1 + PETR3), 48 hr post transfection", "value": "5.2 ± 0.5", "unit": "U/L"}, {"measurement": "SEAP activity [U/L] + Erythromycin [10 μg/ml]", "setting": "[3]; CHO + pWW35 + pWW39 (ET1 + PETR4-SEAP), 48 hrs", "value": "29.3 ± 0.6", "unit": "U/L"}, {"measurement": "SEAP activity [U/L] + Erythromycin [10 μg/ml]", "setting": "[3]; CHO + pWW42 + pWW38 (ET2 + PETR3), 48 hr", "value": "2.5 ± 0.6", "unit": "U/L"}, {"measurement": "SEAP activity [U/L] + Erythromycin [10 μg/ml]", "setting": "[3]; CHO + pWW64 + pWW38 (ET3 + PETR3), 48 hr", "value": "1.0 ± 0.4", "unit": "U/L"}, {"measurement": "SEAP activity [U/L]", "setting": "[4]", "value": "10.1 ± 1.5", "unit": "U/L"}]}
